Values quoted from earlier work as cited in US20170231974A1, “Combined Use of an Alpha-Adrenergic Receptor Antagonist and an Anti-Muscarinic Agent” (Astellas Ireland Co., Ltd., priority 2008, published 2017).
Where a name gives a salt, the structure may show the parent alone.

Test system: male patients with lower urinary tract symptoms associated with prostatic hyperplasia
[1] = male patients, at least 1 urgency episode per day and 8 or more micturitions per day

Row | SMILES | acute urinary retention (AUR) (added to doxazosin) | effect on urinary flow rate (added to doxazosin) | improvement of storage symptom score [1] | improvement of total I-PSS [1] | improvement of voiding score [1]
1 | CCCOC(C(=O)OC1CCN(C)CC1)(c1ccccc1)c1ccccc1 [Propiverine, propiverine hydrochloride] | no acute urinary retention (AUR) was observed | did not affect the urinary flow rate |  |  | 
2 | COc1cc2nc(N3CCN(C(=O)C4COc5ccccc5O4)CC3)nc(N)c2cc1OC (centres unmarked) [doxazosin] |  |  | 2.9 points | 7.3 points | 4.5 points
